Source: ChEMBL document CHEMBL2401682, “Evaluation of Jatropha isabelli natural products and their synthetic analogs as potential antimalarial therapeutic agents” (Eur J Med Chem, 2013)
Converted amounts (≈) assume the structure as drawn.

How the values were obtained:
BJ = assay: Cytotoxicity against human BJ cells after 72 hrs by celltiter-glo assay; format: cell-based
Raji = assay: Cytotoxicity against human Raji cells after 72 hrs by celltiter-glo assay; format: cell-based
HEK293 = assay: Cytotoxicity against HEK293 cells after 72 hrs by celltiter-glo assay; format: cell-based; conditions: Homo sapiens, HEK293, 72 h
[1] = Permeability of the compound by PAMPA; format: ADME; conditions: read-out: permeability
[2] = Solubility of the compound; format: physicochemical
Plasmodium falciparum [3] = assay: Antimalarial activity against chloroquine-sensitive Plasmodium falciparum 3D7 infected in O-positive erythrocytes assessed as parasite growth inhibition after 72 hrs by DNA staining-based assay; format: functional, organism-based; conditions: 3D7, 72 h
HepG2 = assay: Cytotoxicity against human HepG2 cells after 72 hrs by celltiter-glo assay; format: cell-based; conditions: HepG2, 72 h
Plasmodium falciparum [4] = assay: Antimalarial activity against chloroquine and pyrimethamine-resistant Plasmodium falciparum K1 infected in O-positive erythrocytes assessed as parasite growth inhibition after 72 hrs by DNA staining-based assay; format: functional, organism-based; conditions: K1, 72 h
[5] = Half life in human liver microsomes; format: ADME, Microsome
[6] = Plasma protein binding in human; format: ADME, cell-free; conditions: read-out: PPB (converted)
[7] = Half life in mouse liver microsomes; format: ADME, Microsome
[8] = Efflux ratio of permeability in human Caco2 cells; format: ADME, cell-based; conditions: Caco-2
[9] = Half life in mouse plasma; format: ADME, cell-free
[10] = Solubility of the compound at pH 3 to 7; format: physicochemical; conditions: buffer
[11] = Half life in human plasma; format: ADME, cell-free
[12] = Plasma protein binding in mouse; format: ADME, cell-free; conditions: read-out: PPB (converted)

Row | SMILES | EC50 (BJ) [µM] | EC50 (Raji) [µM] | EC50 (HEK293) [µM] | Papp [1] [×10⁻⁶ cm/s] | solubility [2] [µg/mL] | EC50 (Plasmodium falciparum [3]) [µM] | EC50 (HepG2) [µM] | EC50 (Plasmodium falciparum [4]) [µM] | half-life [5] [min] | fraction unbound [6] | half-life [7] [min] | efflux ratio [8] | half-life [9] [min] | solubility [10] [µg/mL] | half-life [11] [min] | fraction unbound [12]
1 | CC1=C2CC(C)(C)/C(c3ccc(C(F)(F)F)cc3)=C/C(=O)/C(C)=C\C3=C[C@H](C)C[C@]3(O2)C1=O | 26 | 26 | 26 | 106 | 17 (≈ 37.2 µM) | 6.08 | 26 | 5.88 |  |  |  |  |  |  |  | 
2 | CC1=C2CC(C)(C)/C=C/C(=O)/C(C)=C\C3=C[C@H](C)C[C@]3(O2)C1=O [JATROPHONE] | 1.93 | 26 | 6.09 | 525 |  | 15 | 6.09 | 5.41 | 6 | 0.26 | 5.4 | 1.5 | 12.6 | 20 (≈ 64 µM) | 7.8 | 0.26
